Here are results for one sequence from patent publication US9657081B2, “Inhibiting peptides derived from triggering receptor expressed on myeloid cells-1 (TREM-1) TREM-like transcript 1 (TLT-1) for treatment of cardiovascular diseases” (INSERM (Institut National de la Sante et de la Recherche …, priority 2013, dated 2017).

Assay [1] concerns the target T1, TREM-1 (Mus musculus, UniProt Q9JKE2).
T1 construct: endogenous in cells; host or cells: living mice (C57BL, Balb/c, ApoE-/-), in vivo
T1 sequence (Q9JKE2 21-230): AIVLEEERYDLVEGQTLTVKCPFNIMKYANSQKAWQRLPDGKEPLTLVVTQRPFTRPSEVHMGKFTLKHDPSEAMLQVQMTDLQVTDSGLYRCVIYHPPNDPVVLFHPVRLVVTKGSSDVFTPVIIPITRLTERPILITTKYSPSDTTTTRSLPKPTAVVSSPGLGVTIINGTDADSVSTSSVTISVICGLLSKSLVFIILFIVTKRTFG
The assay is described as follows: Mouse myocardial infarction, myocardial inflammatory reaction and protease activity in infarcted tissue. Type of assay: in vivo. The note with it: myocardium after coronary artery ligation. The method, then: For these experiments, myocardial lysate was obtained 24 hours after the induction of myocardial infarction from mice treated with TREM-1- and TLT-1-derived peptides or control LR12-scrambled peptide (‘controls’). Two areas were studied: a healthy area harvested distally from the infarcted zone in a control animal and an infarcted area. Data are representative of at least 5 different experiments. Results are mean±SD. p values are *p<0.001 [LR12 versus controls].
For these experiments, myocardial lysate was obtained 6, 24 and/or 96 hours after the induction of myocardial infarction from mice treated with TREM-1- and TLT-1-derived peptides or control LR12-scrambled peptide (‘controls’). Infarcted areas were analyzed for cytokine/chemokine production. Data are representative of at least 5 different experiments. p values are *p<0.001 [LR12 versus controls].
For these experiments, myocardial lysate was obtained 6, 24 and 96 hours after the induction of myocardial infarction from mice treated with TREM-1- and TLT-1-derived peptides or control LR12-scrambled peptide (‘controls’). Infarcted areas were analyzed. […]
Mice were monitored after surgery for mortality. Mice were randomized to receive or not peptides (daily ip injection for 5 days, 5 mg/kg) and monitored for survival. […]
MMP-9 enzymatic activity in tissue extracts was determined by SDS-PAGE gelatin zymography. […]

The test system of assay [2] is TREM-1. The assay is described as follows: Rat model of myocardial ischemia-reperfusion, cardiac function by conductance catheter. Type of assay: in vivo. Details: PRSW: unit not given beside the values; Emax / ESPVR: unit not given here. The note with it: six weeks after ischemia-reperfusion; 3 mg/kg once a day for 5 days. The method, then: Adult male Wistar rats were subjected to myocardial ischemia-reperfusion and were randomly grouped (n=10) to receive repeated TREM-1- and TLT-1-derived peptides (3 mg/kg in 0.2 mL NaCl 0.9% once a day for 5 days) or scrambled-LR12 (3 mg/kg in 0.2 mL NaCl 0.9% once a day for 5 days). Six weeks after myocardial injury, cardiac function was investigated under anaesthesia by using a conductance catheter. Emax, ESPVR, and PRSW were higher in animals treated with TREM-1- and TLT-1-derived peptides than in control rats. All p<0.02 [controls versus LR12]).
Animals received same surgery than in permanent ischemia, but with reperfusion of ischemic area by release of the LAD ligation after 60 minutes of ischemia. The same protocol as described above was then applied.
Rats were anaesthetized with isoflurane and a 2 F high-fidelity micro-manometer catheter (SPR-407, Millar Institute, Houston, Tex., USA) was inserted into the LV via the right carotid artery. The Millar catheter was connected to a Harvard Data Acquisition System interfaced with a PC with the AcqKnowledge III software (ACQ 3.2).
To investigate the role of TREM-1- and TLT-1-derived peptides in a more relevant model of MI, we performed a transient coronary artery ligation (ischemia-reperfusion model: IR) in rats. After randomisation, animals were then imaged under anaesthesia (micro-TEP) and administered with TREM-1- and TLT-1-derived peptides (3 mg/kg daily for 5 days i.p.) or LR12-scrambled peptide. Imaging was then repeated at 6 weeks before we studied cardiac function by using a conductance catheter (Millar).

For the sequence “LQEEDAGEYGCM (listed as Homo sapiens) [TLT1-LR12]”, the “myocardial infarction-induced gene activation (innate immunity / endothelial function genes)” value with TREM-1 [1] is on record as “opposed to myocardial infarction-induced gene activation”. Also, in the assay on TREM-1 [2], the ESPVR is on record as 2.2 ± 0.1, the Emax is 4.8 ± 0.5 and the PRSW was determined as 103 ± 5.
